Like-named read-outs stand apart in the source and are kept apart here. Peptide text beside a SMILES is read from it.
Target: T1, human APJ receptor (hAPJ) (Homo sapiens, UniProt P35414)
T1 construct: expressed in transfected cells
T1 sequence (P35414 1-380): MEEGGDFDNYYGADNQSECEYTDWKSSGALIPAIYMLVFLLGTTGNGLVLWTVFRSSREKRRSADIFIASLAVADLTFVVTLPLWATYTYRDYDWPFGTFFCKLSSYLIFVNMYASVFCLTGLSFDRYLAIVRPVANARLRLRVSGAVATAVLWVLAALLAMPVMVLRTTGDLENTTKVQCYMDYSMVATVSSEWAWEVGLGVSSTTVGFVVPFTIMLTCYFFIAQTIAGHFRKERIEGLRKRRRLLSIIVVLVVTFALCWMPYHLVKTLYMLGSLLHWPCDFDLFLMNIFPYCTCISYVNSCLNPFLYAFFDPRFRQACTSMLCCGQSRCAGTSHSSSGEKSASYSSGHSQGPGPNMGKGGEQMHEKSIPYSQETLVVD
Assay: HTRF cAMP assay: inhibition of NKH477-stimulated cAMP in HEK cells stably expressing hAPJ
Assay type: cell-based
Details: for % IA (cAMP inhibition, hAPJ HEK): intrinsic activity; for Ranking: composite class of EC50 (hAPJ), % IA and % histamine or formal (+) charge; for Emax: HEK293, read-out: % IA, bound stated; for inhibition of NKH477-stimulated increase in cAMP, dose dependent: concentration response curves, FIGS. 1 and 2, HEK cells stably expressing APJ
Source text: HTRF cAMP Assay and IP-One Assay (Cisbio)
HTRF (homogeneous time resolved fluorescence) is a technology developed by Cisbio Bioassays based on TR-FRET (time-resolved fluorescence resonance energy transfer). Cisbio Bioassays has developed a wide selection of HTRF-based assays compatible with whole cells, thereby enabling functional assays to run under more physiological conditions. The IP-One assays are competitive immunoassays using cryptate-labeled anti-IP1 monoclonal antibody and d2-labeled IP1. IP1 is a relatively stable downstream metabolite of IP3, and accumulates in cells following Gq receptor activation.
cAMP kits based on a competitive immunoassay using cryptate-labeled anti-cAMP antibody and d2-labeled cAMP were used to assay the effects of APJ compounds of the present invention. […] Cells are treated with 1 nG/mL doxycycline and seeded in all white 96 well plates @40 k/well overnight.

[1] = Table 6, hAPJ HEK cells, NKH477-stimulated cAMP, read-out: EC50 (cAMP inhibition, hAPJ HEK)
[2] = EC50 (cAMP inhibition, hAPJ HEK), Table 6, hAPJ HEK cells, NKH477-stimulated cAMP
[3] = EC50 (hAPJ), inhibition of cAMP production, bound stated, HTRF cAMP Assay, per data of Table 6
[4] = HTRF cAMP Assay, per data of Table 6
[5] = HTRF cAMP Assay, per data of Table 6, read-out: EC50 (hAPJ), inhibition of cAMP production, bound stated

Row | Compound | EC50 [1] [nM] | % IA (cAMP inhibition, hAPJ HEK) (Table 6, hAPJ HEK cells) [%] | Ranking | EC50 [2] [nM] | EC50 [3] [nM] | Emax [4] [%] | EC50 [5] [nM] | inhibition of NKH477-stimulated increase in cAMP, dose dependent
1 | CCCCCCCCCCCCCCCC(=O)N[C@H](C(=O)N[C@H](C(=O)N[C@@H](CC(=O)O)C(=O)N[C@@H](CCCNC(=N)N)C(=O)N[C@@H](CO)C(=O)N[C@@H](CO)C(=O)N[C@@H](CCCNC(=N)N)C(=O)N[C@@H](CCC(=O)O)C(=O)N[C@H](CCCCN)C(=O)N[C@@H](CCCNC(=N)N)C(=O)N[C@@H](CCCNC(=N)N)C(=O)N[C@@H](CCC(=O)O)C(=O)N[C@@H](CO)C(=O)N[C@@H](C)C(=O)N[C@@H](CC(=O)O)C(=O)N[C@H](C(=O)N[C@@H](Cc1ccccc1)C(=O)N[C@H](C(N)=O)[C@@H](C)CC)[C@@H](C)CC)C(C)C)[C@@H](C)O [Compound 5] (HELM PEPTIDE1{[CCCCCCCCCCCCCCCC(=O)[*:2]].T.V.D.R.S.S.R.E.[dK].R.R.E.S.A.D.I.F.I.[am]}$$$$V2.0) | 40 | 41 | * (EC50≦50 nM (hAPJ), % IA<50%) | – | – | – | – | –
2 | CCCCCCCCCCCCCCCC(=O)N[C@H](C(=O)N[C@H](C(=O)N[C@@H](CC(=O)O)C(=O)N[C@@H](CCCNC(=N)N)C(=O)N[C@@H](CO)C(=O)N[C@@H](CO)C(=O)N[C@@H](CCC(N)=O)C(=O)N[C@@H](CCC(=O)O)C(=O)N[C@H](CCCCN)C(=O)N[C@@H](CCCNC(=N)N)C(=O)N[C@@H](CCCNC(=N)N)C(=O)N[C@@H](CO)C(=O)N[C@@H](C)C(=O)N[C@@H](CC(=O)O)C(=O)N[C@H](C(=O)N[C@@H](Cc1ccccc1)C(=O)N[C@H](C(N)=O)[C@@H](C)CC)[C@@H](C)CC)C(C)C)[C@@H](C)O [Compound 6] (HELM PEPTIDE1{[CCCCCCCCCCCCCCCC(=O)[*:2]].T.V.D.R.S.S.Q.E.[dK].R.R.S.A.D.I.F.I.[am]}$$$$V2.0) | – | 77 | *** (EC50 25-50 nM (hAPJ), % IA 50-79% and either % histamine≦35% or formal (+) charge≦1) | 19 | 25 to 50 | 50 to 79 | – | –
3 | CCCCCCCCCCCCCCCC(=O)N[C@H](C(=O)N[C@H](C(=O)N[C@@H](CC(=O)O)C(=O)N[C@@H](CCCNC(=N)N)C(=O)N[C@@H](CO)C(=O)N[C@@H](CO)C(=O)N[C@@H](CCCCN)C(=O)N[C@@H](CCC(=O)O)C(=O)N[C@H](CCCCN)C(=O)N[C@@H](CCCNC(=N)N)C(=O)N[C@@H](CCCNC(=N)N)C(=O)N[C@@H](CO)C(=O)N[C@@H](C)C(=O)N[C@@H](CC(=O)O)C(=O)N[C@H](C(=O)N[C@@H](Cc1ccccc1)C(=O)N[C@H](C(N)=O)[C@@H](C)CC)[C@@H](C)CC)C(C)C)[C@@H](C)O [Compound 7] (HELM PEPTIDE1{[CCCCCCCCCCCCCCCC(=O)[*:2]].T.V.D.R.S.S.K.E.[dK].R.R.S.A.D.I.F.I.[am]}$$$$V2.0) | – | 59 | *** (EC50 25-50 nM (hAPJ), % IA 50-79% and either % histamine≦35% or formal (+) charge≦1) | 9 | 25 to 50 | 50 to 79 | – | –
4 | CCCCCCCCCCCCCCCC(=O)N[C@@H](CC(=O)O)C(=O)N[C@H](C(=O)N[C@@H](Cc1ccccc1)C(=O)N[C@@H](CC(N)=O)C(=O)N[C@@H](CO)C(=O)N[C@@H](CO)C(=O)N[C@@H](CCC(=O)O)C(=O)N[C@H](CCCCN)C(=O)N[C@@H](CCCNC(=N)N)C(=O)N[C@@H](CCCNC(=N)N)C(=O)N[C@@H](CO)C(=O)N[C@@H](C)C(=O)N[C@@H](CC(=O)O)C(=O)N[C@@H](CC(N)=O)C(=O)N[C@@H](Cc1ccccc1)C(=O)N[C@H](C(N)=O)[C@@H](C)CC)C(C)C [Compound 19] (HELM PEPTIDE1{[CCCCCCCCCCCCCCCC(=O)[*:2]].D.V.F.N.S.S.E.[dK].R.R.S.A.D.N.F.I.[am]}$$$$V2.0) | 5 | 67 | *** (EC50 25-50 nM (hAPJ), % IA 50-79% and either % histamine≦35% or formal (+) charge≦1) | – | – | 50 to 79 | 25 to 50 | –
5 | CCCCCCCCCCCCCCCC(=O)N[C@@H](CC(=O)O)C(=O)N[C@H](C(=O)N[C@@H](Cc1ccccc1)C(=O)N[C@@H](CCCNC(=N)N)C(=O)N[C@@H](CO)C(=O)N[C@@H](CO)C(=O)N[C@@H](CCC(=O)O)C(=O)N[C@H](CCCCN)C(=O)N[C@@H](CCCNC(=N)N)C(=O)N[C@@H](CCCNC(=N)N)C(=O)N[C@@H](CO)C(=O)N[C@@H](C)C(=O)N[C@@H](CC(=O)O)C(=O)N[C@@H](CC(N)=O)C(=O)N[C@@H](Cc1ccccc1)C(=O)N[C@H](C(N)=O)[C@@H](C)CC)C(C)C [Compound 20] (HELM PEPTIDE1{[CCCCCCCCCCCCCCCC(=O)[*:2]].D.V.F.R.S.S.E.[dK].R.R.S.A.D.N.F.I.[am]}$$$$V2.0) | 32 | 98 | *** (EC50 25-50 nM (hAPJ), % IA 50-79% and either % histamine≦35% or formal (+) charge≦1) | – | – | 50 to 79 | 25 to 50 | –
6 | CCCCCCCCCCCCCCCC(=O)N[C@H](C(=O)N[C@H](C(=O)N[C@@H](CCCCN)C(=O)N[C@@H](CCCNC(=N)N)C(=O)N[C@@H](CO)C(=O)N[C@@H](CO)C(=O)N[C@@H](CCC(=O)O)C(=O)N[C@H](CCCCN)C(=O)N[C@@H](CCCNC(=N)N)C(=O)N[C@@H](CCCNC(=N)N)C(=O)N[C@@H](CO)C(=O)N[C@@H](C)C(=O)N[C@@H](CC(=O)O)C(=O)N[C@H](C(=O)N[C@@H](Cc1ccccc1)C(=O)N[C@H](C(N)=O)[C@@H](C)CC)[C@@H](C)CC)C(C)C)[C@@H](C)O [Compound 21] (HELM PEPTIDE1{[CCCCCCCCCCCCCCCC(=O)[*:2]].T.V.K.R.S.S.E.[dK].R.R.S.A.D.I.F.I.[am]}$$$$V2.0) | – | 85 | **** (EC50≦25 nM (hAPJ), % IA≧80% and either % histamine>35% or formal (+) charge>1) | 9 | ≤ 25 | ≥ 80 | – | inhibited
7 | CCCCCCCCCCCCCCCC(=O)N[C@H](C(=O)N[C@H](C(=O)N[C@@H](Cc1ccccc1)C(=O)N(C)[C@@H](CCCNC(=N)N)C(=O)N[C@@H](CO)C(=O)N[C@@H](CO)C(=O)N[C@@H](CCC(=O)O)C(=O)N[C@H](CCCCN)C(=O)N[C@@H](CCCNC(=N)N)C(=O)N[C@@H](CCCNC(=N)N)C(=O)N[C@@H](CO)C(=O)N[C@@H](C)C(=O)N[C@@H](CC(=O)O)C(=O)N[C@H](C(=O)N[C@@H](Cc1ccccc1)C(=O)N[C@H](C(N)=O)[C@@H](C)CC)[C@@H](C)CC)C(C)C)[C@@H](C)O [Compound 31] (HELM PEPTIDE1{[CCCCCCCCCCCCCCCC(=O)[*:2]].T.V.F.[meR].S.S.E.[dK].R.R.S.A.D.I.F.I.[am]}$$$$V2.0) | – | 84 | ** (EC50 25-50 nM (hAPJ), % IA 50-79% and either % histamine>35% or formal (+) charge>1) | – | – | – | – | –
8 | CCCCCCCCCCCCCCCC(=O)N[C@H](C(=O)N[C@H](C(=O)N[C@@H](CC(=O)O)C(=O)N(C)[C@@H](CCCNC(=N)N)C(=O)N[C@@H](CO)C(=O)N[C@@H](CO)C(=O)N[C@@H](CCC(=O)O)C(=O)N[C@H](CCCCN)C(=O)N[C@@H](CCCNC(=N)N)C(=O)N[C@@H](CCCNC(=N)N)C(=O)N[C@@H](CO)C(=O)N[C@@H](C)C(=O)N[C@@H](CC(=O)O)C(=O)N[C@H](C(=O)N[C@@H](Cc1ccccc1)C(=O)N[C@H](C(N)=O)[C@@H](C)CC)[C@@H](C)CC)C(C)C)[C@@H](C)O [Compound 32] (HELM PEPTIDE1{[CCCCCCCCCCCCCCCC(=O)[*:2]].T.V.D.[meR].S.S.E.[dK].R.R.S.A.D.I.F.I.[am]}$$$$V2.0) | – | 97 | **** (EC50≦25 nM (hAPJ), % IA≧80% and either % histamine>35% or formal (+) charge>1) | 24 | ≤ 25 | ≥ 80 | – | inhibited

Source: US20160159861A1, “APJ Receptor Compounds” (priority 2013, published 2016)
